Structure (SMILES) | melting point
CCOC(=O)COc1ccc(C(=O)CN2Cc3cc(C(=N)NC(=O)OCC(C)C)ccc3C2=O)cc1N(CC(=O)OCC)S(C)(=O)=O (hydrate or solvate) [Example 39, (2-{Ethoxycarbonylmethyl-methanesulfonyl-amino}-4-{2-[5-(imino-isobutoxycarbonylamino-methyl)-1-oxo-1,3-dihydro-isoindol-2-yl]-acetyl}-phenoxy)-acetic acid ethyl ester] | 80 to 82 °C
CCOC(=O)COC1CCN(C(=O)CN2Cc3cc(C(=N)NC(=O)OC(C)(C)C)ccc3C2=O)CC1 (hydrate or solvate) [Example 72, (1-{2-[5-(tert-Butoxycarbonylamino-imino-methyl)-1-oxo-1,3-dihydro-isoindol-2-yl]-acetyl}-piperidin-4-yloxy)-acetic acid ethyl ester] | 83 to 85 °C
COC(=O)NC(=N)c1ccc2c(c1)CN(CC(=O)c1ccc(OCC(=O)OC(C)C)cc1)C2=O [Example 6, (4-{2-[5-(Imino-methoxycarbonylamino-methyl)-1-oxo-1,3-dihydro-isoindol-2-yl]-acetyl}-phenoxy)-acetic acid isopropyl ester] | 183 to 184 °C
COC(=O)NC(=N)c1ccc2c(c1)CN(CC(=O)c1ccc(OCC(=O)OCC(C)C)cc1)C2=O [Example 11, (4-{2-[5-(Imino-methoxycarbonylamino-methyl)-1-oxo-1,3-dihydro-isoindol-2-yl]-acetyl}-phenoxy)-acetic acid isobutyl ester] | 162 to 163 °C
CC(C)COC(=O)COc1ccc(C(=O)CN2Cc3cc(C(=N)NC(=O)OCc4ccccc4)ccc3C2=O)cc1 [Example 13, (4-{2-[5-(Benzyloxycarbonylamino-imino-methyl)-1-oxo-1,3-dihydro-isoindol-2-yl]-acetyl}-phenoxy)-acetic acid isobutyl ester] | 139 to 140 °C
CC(C)COC(=O)COc1ccc(C(=O)CN2Cc3cc(C(=N)NS(C)(=O)=O)ccc3C2=O)cc1 [Example 14, (4-{2-[5-(Imino-methanesulfonylamino-methyl)-1-oxo-1,3-dihydro-isoindol-2-yl]-acetyl}-phenoxy)-acetic acid isobutyl ester] | 177 to 178 °C
CC(C)COC(=O)COc1ccc(C(=O)CN2Cc3cc(C(=N)NO)ccc3C2=O)cc1 [Example 15, (4-{2-[5-(N-Hydroxycarbamimidoyl)-1-oxo-1,3-dihydro-isoindol-2-yl]-acetyl}-phenoxy)-acetic acid isobutyl ester] | 153 to 154 °C
CCOC(=O)COc1ccc(C(=O)CN2Cc3cc(C(=N)NO)ccc3C2=O)cc1OCC(=O)OCC [Example 21, (2-Ethoxycarbonylmethoxy-4-{2-[5-(N-hydroxycarbamimidoyl)-1-oxo-1,3-dihydro-isoindol-2-yl]-acetyl}-phenoxy)-acetic acid ethyl ester] | 163 to 164 °C
CCOC(=O)C(CCNC(=O)OCc1ccccc1)Oc1ccc(C(=O)CN2Cc3cc(C(=N)NO)ccc3C2=O)cc1 (centres unmarked) [Example 28, 4-Benzyloxycarbonylamino-2-(4-{2-[5-(N-hydroxycarbamimidoyl)-1-oxo-1,3-dihydro-isoindol-2-yl]-acetyl}-phenoxy)-butyric acid ethyl ester] | 174 to 175 °C
COC(=O)CSc1ccc(C(=O)CN2Cc3cc(C(=N)NO)ccc3C2=O)cc1 [Example 29, (4-{2-[5-(N-Hydroxycarbamimidoyl)-1-oxo-1,3-dihydro-isoindol-2-yl]-acetyl}-phenylsulfanyl)-acetic acid methyl ester] | 193 to 194 °C
CCOC(=O)COc1ccc(C(=O)CN2Cc3cc(C(=N)NC(=O)OCC(C)C)ccc3C2=O)cc1Cl [Example 31, (2-Chloro-4-{2-[5-(imino-isobutoxycarbonylamino-methyl)-1-oxo-1,3-dihydro-isoindol-2-yl]-acetyl}-phenoxy)-acetic acid ethyl ester] | 178 to 179 °C

Continued, values first:

melting point | Structure (SMILES)
175 to 177 °C | CCCOc1cc(OCC(=O)OCC)ccc1C(=O)CN1Cc2cc(C(=N)NO)ccc2C1=O (hydrate or solvate) [Example 46, (4-{2-[5-(N-Hydroxycarbamimidoyl)-1-oxo-1,3-dihydro-isoindol-2-yl]-acetyl}-3-propoxy-phenoxy)-acetic acid ethyl ester]
227 to 228 °C | CCOC(=O)COc1cc(O)c(C(=O)CN2Cc3cc(C(=N)NO)ccc3C2=O)cc1Cl (hydrate or solvate) [Example 53, (2-Chloro-5-hydroxy-4-{2-[5-(N-hydroxycarbamimidoyl)-1-oxo-1,3-dihydro-isoindol-2-yl]-acetyl}-phenoxy)-acetic acid ethyl ester]
214 to 215 °C | CCOC(=O)COc1ccc(C(=O)CN2Cc3cc(C(=N)NO)ccc3C2=O)c(O)c1Cl (hydrate or solvate) [Example 54, (2-Chloro-3-hydroxy-4-{2-[5-(N-hydroxycarbamimidoyl)-1-oxo-1,3-dihydro-isoindol-2-yl]-acetyl}-phenoxy)-acetic acid ethyl ester]
226 to 228 °C | CCOC(=O)COc1ccc(C(=O)CN2Cc3cc(C(=N)NO)ccc3C2=O)c(O)c1C (hydrate or solvate) [Example 55, (3-Hydroxy-4-{2-[5-(N-hydroxycarbamimidoyl)-1-oxo-1,3-dihydro-isoindol-2-yl]-acetyl}-2-methyl-phenoxy)-acetic acid ethyl ester]
200 °C | Cc1c(OCC(=O)OCc2ccccc2)ccc(C(=O)CN2Cc3cc(C(=N)NO)ccc3C2=O)c1O (hydrate or solvate) [Example 56, (3-Hydroxy-4-{2-[5-(N-hydroxycarbamimidoyl)-1-oxo-1,3-dihydro-isoindol-2-yl]-acetyl}-2-methyl-phenoxy)-acetic acid benzyl ester]
186 to 188 °C | CCOC(=O)COc1cc(O)c(C(=O)CN2Cc3cc(C(=N)NO)ccc3C2=O)cc1OCC(=O)OCC (hydrate or solvate) [Example 65, (2-Ethoxycarbonylmethoxy-5-hydroxy-4-{2-[5-(N-hydroxycarbamimidoyl)-1-oxo-1,3-dihydro-isoindol-2-yl]-acetyl}-phenoxy)-acetic acid ethyl ester]
182 to 183 °C | C=CCOc1cc(OCC(=O)OCC)ccc1C(=O)CN1Cc2cc(C(=N)NO)ccc2C1=O (hydrate or solvate) [Example 83, (3-Allyloxy-4-{2-[5-(N-hydroxycarbamimidoyl)-1-oxo-1,3-dihydro-isoindol-2-yl]-acetyl}-phenoxy)-acetic acid ethyl ester]
201 to 202 °C | CCOC(=O)COc1ccc(C(=O)CN2Cc3cc(C(=N)NO)ccc3C2=O)cc1Cl [Example 32, (2-Chloro-4-{2-[5-(N-hydroxycarbamimidoyl)-1-oxo-1,3-dihydro-isoindol-2-yl]-acetyl}-phenoxy)-acetic acid ethyl ester]
196 to 197 °C | CCOC(=O)COc1ccc(C(=O)CN2Cc3cc(C(=N)NO)ccc3C2=O)cc1S(=O)(=O)CC [Example 36, (2-Ethanesulfonyl-4-{2-[5-(N-hydroxycarbamimidoyl)-1-oxo-1,3-dihydro-isoindol-2-yl]-acetyl}-phenoxy)-acetic acid ethyl ester]

Source: patent US7964628B2, “Fibrinogen receptor antagonists and their use” (Piramal Life Sciences Limited, priority 2003, dated 2011)
